Test results reported in patent publication US4988687A, “Cephalosporin derivatives, and antibacterial agents” (priority 1986, dated 1991).
Converted amounts (≈) assume the structure as drawn. Where two headings read alike, the source gives them in different places.

Key:
[1] = test system: S. aureus 209P NIHJ-JC1; test: agar plate dilution method, MIC against S. aureus 209P NIHJ-JC1; assay type: cell-based; details: Staphylococcus aureus, read-out: Minimum Inhibitory Concentration (MIC)
Description: (§1) The in vitro antibacterial activities of the compounds of the present invention against various microorganisms, were measured by the following agar plate dilution method. One platinum loopfull of each test microorganism incubated overnight in Mueller Hinton broth, was inoculated to Mueller Hinton agar (inoculum size: 10^6 CFU/ml) Such culture media containing various antibiotics in various concentrations were prepared After incubation at 37° C. for 16 hours, the minimum inhibitory concentrations (MIC: μg/ml) were measured. As comparative compounds, cefotaxime, oeftazidime and the compounds disclosed in Example 2 of Japanese Unexamined Patent Publication No. 215690/1985 e.g. sodium 7-[2-(2-aminothiazol-4-yl)-2-ethoxyiminoacetamido]-3-(1-carboxylatemethylpyridinio-4-yl)thiomethyl-3-cephem-4-carboxylate (hereinafter referred to simply as "Reference Example A") were employed.

[2] = test system: S. aureus JS1; test: agar plate dilution method, MIC against S. aureus JS1; assay type: cell-based; details: Staphylococcus aureus, read-out: Minimum Inhibitory Concentration (MIC)
Description: as §1

[3] = test system: S. aureus BB5703; test: agar plate dilution method, MIC against S. aureus BB5703; assay type: cell-based; details: Staphylococcus aureus, BB5703, 16 h, read-out: Minimum Inhibitory Concentration (MIC)
Description: as §1

[4] = test system: S. epidermidis IAM12012; test: agar plate dilution method, MIC against S. epidermidis IAM12012; assay type: cell-based; details: Staphylococcus epidermidis, read-out: Minimum Inhibitory Concentration (MIC)
Description: as §1

[5] = test system: M. luteus ATCC9341; test: agar plate dilution method, MIC against M. luteus ATCC9341; assay type: cell-based; details: Micrococcus luteus; M. luteus ATCC9341; 10^6 CFU/ml, 37° C., 16 hours; read-out: Minimum Inhibitory Concentration (MIC)
Description: as §1

[6] = test system: C. freundii GN346/16; test: agar plate dilution method, MIC against C. freundii GN346/16; assay type: cell-based; details: Citrobacter freundii, read-out: Minimum Inhibitory Concentration (MIC)
Description: as §1

[7] = test system: E. coli NIHJ JC2; test: agar plate dilution method, MIC against E. coli NIHJ JC2; assay type: cell-based; details: Escherichia coli, NIHJJC2; E. coli NIHJ JC2; 10^6 CFU/ml, 37° C., 16 hours; read-out: Minimum Inhibitory Concentration (MIC)
Description: as §1

[8] = test system: E. coli CSH2 (RK1); test: agar plate dilution method, MIC against E. coli CSH2 (RK1); assay type: cell-based; details: Escherichia coli, 16 h, read-out: Minimum Inhibitory Concentration (MIC)
Description: as §1

[9] = test system: K. pneumoniae PCI-602; test: agar plate dilution method, MIC against K. pneumoniae PCI-602; assay type: cell-based; details: Klebsiella pneumoniae, PCI602, 16 h, read-out: Minimum Inhibitory Concentration (MIC)
Description: as §1

[10] = test system: E. coli CSH(RE45); test: agar plate dilution method, MIC against E. coli CSH(RE45); assay type: cell-based; details: Escherichia coli, 16 h, read-out: Minimum Inhibitory Concentration (MIC)
Description: as §1

[11] = test system: K. oxytoca GN10650; test: agar plate dilution method, MIC against K. oxytoca GN10650; assay type: cell-based; details: Klebsiella oxytoca, read-out: Minimum Inhibitory Concentration (MIC)
Description: as §1

[12] = test system: K. pneumoniae No. 42; test: agar plate dilution method, MIC against K. pneumoniae No. 42; assay type: cell-based; details: Klebsiella pneumoniae; K. pneumoniae No. 42 (lactamase-producing strain); 10^6 CFU/ml, 37° C., 16 hours; read-out: Minimum Inhibitory Concentration (MIC)
Description: as §1

[13] = test system: P. vulgaris HX-19; test: agar plate dilution method, MIC against P. vulgaris HX-19; assay type: cell-based; details: Proteus vulgaris, HX19, 16 h, read-out: Minimum Inhibitory Concentration (MIC)
Description: as §1

[14] = test system: P. vulgaris No. 33; test: agar plate dilution method, MIC against P. vulgaris No. 33; assay type: cell-based; details: Proteus vulgaris; P. vulgaris No. 33 (lactamase-producing strain); 10^6 CFU/ml, 37° C., 16 hours; read-out: Minimum Inhibitory Concentration (MIC)
Description: as §1

[15] = test system: S. marcescens IAM 1184; test: agar plate dilution method, MIC against S. marcescens IAM 1184; assay type: cell-based; details: Serratia marcescens, IAM1184; S. marcescens IAM 1184; 10^6 CFU/ml, 37° C., 16 hours; read-out: Minimum Inhibitory Concentration (MIC)
Description: as §1

[16] = test system: C. freundii GN346; test: agar plate dilution method, MIC against C. freundii GN346; assay type: cell-based; details: Citrobacter freundii; C. freundii GN346 (lactamase-producing strain); 10^6 CFU/ml, 37° C., 16 hours; read-out: Minimum Inhibitory Concentration (MIC)
Description: as §1

[17] = test system: E. cloacae 963; test: agar plate dilution method, MIC against E. cloacae 963; assay type: cell-based; details: read-out: Minimum Inhibitory Concentration (MIC)
Description: as §1

[18] = test system: E. cloacae Nek 39; test: agar plate dilution method, MIC against E. cloacae Nek 39; assay type: cell-based; details: Enterobacter cloacae, NEK39; E. cloacae Nek 39 (lactamase-producing strain); 10^6 CFU/ml, 37° C., 16 hours; read-out: Minimum Inhibitory Concentration (MIC)
Description: as §1

[19] = test system: E. coli GN5482; test: agar plate dilution method, MIC against E. coli GN5482; assay type: cell-based; details: Escherichia coli; E. coli GN5482 (lactamase-producing strain); 10^6 CFU/ml, 37° C., 16 hours; read-out: Minimum Inhibitory Concentration (MIC)
Description: as §1

[20] = test system: M. morganii GN5407; test: agar plate dilution method, MIC against M. morganii GN5407; assay type: cell-based; details: Morganella morganii; M. morganii GN5407 (lactamase-producing strain); 10^6 CFU/ml, 37° C., 16 hours; read-out: Minimum Inhibitory Concentration (MIC)
Description: as §1

[21] = test system: S. marcescens No. 16-2; test: agar plate dilution method, MIC against S. marcescens No. 16-2; assay type: cell-based; details: Serratia marcescens, NO.162, 16 h, read-out: Minimum Inhibitory Concentration (MIC)
Description: as §1

[22] = test system: Ps. aeruginosa IFO3445; test: agar plate dilution method, MIC against Ps. aeruginosa IFO3445; assay type: cell-based; details: Pseudomonas aeruginosa, IFO3445, 16 h, read-out: Minimum Inhibitory Concentration (MIC)
Description: as §1

[23] = test system: Ps. aeruginosa AK 109; test: agar plate dilution method, MIC against Ps. aeruginosa AK 109; assay type: cell-based; details: Pseudomonas aeruginosa, read-out: Minimum Inhibitory Concentration (MIC)
Description: as §1

[24] = test system: Ps. aeruginosa AKR17; test: agar plate dilution method, MIC against Ps. aeruginosa AKR17; assay type: cell-based; details: Pseudomonas aeruginosa; Ps. aeruginosa AKR17; 10^6 CFU/ml, 37° C., 16 hours; read-out: Minimum Inhibitory Concentration (MIC)
Description: as §1

[25] = test system: Ps. cepacia 23; test: agar plate dilution method, MIC against Ps. cepacia 23; assay type: cell-based, Pseudomonas cepacia; details: read-out: Minimum Inhibitory Concentration (MIC)
Description: as §1

[26] = test system: Ps. maltophilia GN 12873; test: agar plate dilution method, MIC against Ps. maltophilia GN 12873; assay type: cell-based, Pseudomonas maltophilia; details: Stenotrophomonas maltophilia, GN12873; Ps. maltophilia GN 12873 (lactamase-producing strain); 10^6 CFU/ml, 37° C., 16 hours; read-out: Minimum Inhibitory Concentration (MIC)
Description: as §1

[27] = test system: A. calcoaceticus No. 4; test: agar plate dilution method, MIC against A. calcoaceticus No. 4; assay type: cell-based; details: Acinetobacter calcoaceticus, read-out: Minimum Inhibitory Concentration (MIC)
Description: as §1

[28] = C. freundii GN346/16, 10^6 CFU/ml, 37° C., 16 hours
[29] = K. oxytoca GN10650 (lactamase-producing strain), 10^6 CFU/ml, 37° C., 16 hours
[30] = Enterobacter cloacae, E. cloacae 963, 10^6 CFU/ml, 37° C., 16 hours
[31] = S. aureus 209P NIHJ-JC1, 10^6 CFU/ml, Mueller Hinton agar, 37° C., 16 hours

SMILES | MIC [3] [µg/mL] | MIC ([4]; IAM12012, 16 h) [µg/mL] | MIC [5] [µg/mL] | MIC [6, 28] [µg/mL] | MIC [7] [µg/mL] | MIC [8] [µg/mL] | MIC [9] [µg/mL] | MIC [10] [µg/mL] | MIC [12] [µg/mL] | MIC [13] [µg/mL] | MIC [14] [µg/mL] | MIC [15] [µg/mL] | MIC [16] [µg/mL] | MIC [18] [µg/mL] | MIC [19] [µg/mL] | MIC [20] [µg/mL] | MIC [21] [µg/mL] | MIC [22] [µg/mL] | MIC [24] [µg/mL] | MIC [26] [µg/mL] | further results
CO/N=C(\C(=O)N[C@@H]1C(=O)N2C(C(=O)O)=C(COC(C)=O)CS[C@H]12)c1csc(N)n1 [Cefotaxime, cefotaxime, reference compound] | 3.12 (≈ 6.85 µM) | 1.56 (≈ 3.43 µM) | 0.1 (≈ 0.22 µM) | 0.1 (≈ 0.22 µM) | 0.05 (≈ 0.11 µM) | 0.025 (≈ 0.0549 µM) | < 0.006 | 0.1 (≈ 0.22 µM) | 0.05 (≈ 0.11 µM) | < 0.006 | 0.025 (≈ 0.0549 µM) | 0.1 (≈ 0.22 µM) | 12.5 (≈ 27.4 µM) | 3.12 (≈ 6.85 µM) | 0.39 (≈ 0.856 µM) | 0.1 (≈ 0.22 µM) | 12.5 (≈ 27.4 µM) | 12.5 (≈ 27.4 µM) | > 100 | > 100 | MIC ([1]; 16 h): 1.56 µg/mL (≈ 3.43 µM); MIC ([2]; S. aureus JS1 (methicilline resistant; lactamase-producing strain), 10^6 CFU/ml, 37° C., 16 hours): 25 µg/mL (≈ 54.9 µM); MIC [11, 29]: 0.39 µg/mL (≈ 0.856 µM); MIC [17, 30]: 0.1 µg/mL (≈ 0.22 µM); MIC ([23]; AK109, 16 h): 12.5 µg/mL (≈ 27.4 µM); MIC ([25]; Burkholderia cepacia, 23, 16 h): 6.25 µg/mL (≈ 13.7 µM); MIC ([27]; A. calcoaceticus No. 4, 10^6 CFU/ml, 37° C., 16 hours): 25 µg/mL (≈ 54.9 µM)
Nc1nc(C(=NOCc2ccc(O)c(O)c2)C(=O)NC2C(=O)N3C(C(=O)[O-])=C(CSc4cc[n+](CC(=O)O)cc4)CSC23)cs1 (stereo not drawn) [Example 4, 7-[2-(2-aminothiazol-4-yl)-2-(3,4-dihydroxybenzyloxyimino)acetamido]-3-(1-carboxymethylpyridinio-4-yl)thiomethyl-3-cephem-4-carboxylate (syn-isomer)] | 3.12 (≈ 4.64 µM) | – | 0.39 (≈ 0.58 µM) | 0.2 (≈ 0.297 µM) | 0.05 (≈ 0.0743 µM) | 0.05 (≈ 0.0743 µM) | < 0.006 | 0.025 (≈ 0.0372 µM) | 0.2 (≈ 0.297 µM) | 0.025 (≈ 0.0372 µM) | 0.2 (≈ 0.297 µM) | 0.1 (≈ 0.149 µM) | 6.25 (≈ 9.29 µM) | 0.78 (≈ 1.16 µM) | 0.39 (≈ 0.58 µM) | 0.1 (≈ 0.149 µM) | 6.25 (≈ 9.29 µM) | 3.12 (≈ 4.64 µM) | > 100 | > 100 | MIC [1, 31]: 0.39 µg/mL (≈ 0.58 µM); MIC ([2]; JS1, 16 h): 6.25 µg/mL (≈ 9.29 µM); MIC ([4]; S. epidermidis IAM12012, 10^6 CFU/ml, 37° C., 16 hours): 0.78 µg/mL (≈ 1.16 µM); MIC ([11]; GN10650, 16 h): 0.78 µg/mL (≈ 1.16 µM); MIC [17, 30]: 0.1 µg/mL (≈ 0.149 µM); MIC ([23]; AK109, 16 h): 1.56 µg/mL (≈ 2.32 µM); MIC ([25]; Burkholderia cepacia, Ps. cepacia 23, 10^6 CFU/ml, 37° C., 16 hours): 0.39 µg/mL (≈ 0.58 µM); MIC ([27]; NO.4, 16 h): 1.56 µg/mL (≈ 2.32 µM)
Nc1nc(/C(=N/Oc2ccccc2)C(=O)NC2C(=O)N3C(C(=O)[O-])=C(CSc4cc[n+](CC(=O)O)cc4)CSC23)cs1 (stereo not drawn) [Example 7, sodium 7-[2-(2-aminothiazol-4-yl)-2-phenoxyiminoacetamido]-3-(1-carboxylatemethylpyridinio-4-yl)thiomethYl-3-cephem-4-carboxylate (syn-isomer)] | 3.12 | 0.2 | 0.1 | – | 0.78 | 0.78 | 0.025 | 0.78 | 3.12 | < 0.006 | 0.78 | 0.78 | 50 | 12.5 | 1.56 | 0.78 | 12.5 | 12.5 | > 100 | > 100 | MIC [1, 31]: 0.39 µg/mL; MIC ([2]; JS1, 16 h): 12.5 µg/mL; MIC ([6]; GN346, 16 h): 1.56 µg/mL; MIC [11, 29]: 25 µg/mL; MIC ([17]; Enterobacter cloacae, 963, 16 h): 3.12 µg/mL; MIC ([23]; AK109, Ps. aeruginosa AK 109, 10^6 CFU/ml, 37° C., 16 hours): 25 µg/mL; MIC ([25]; Burkholderia cepacia, 23, 16 h): 3.12 µg/mL; MIC ([27]; NO.4, 16 h): 3.12 µg/mL
